Assay results from patent US7759101B2, “Ginsenoside glycosidases hydrolyzing ginsenoside sugar moieties and uses thereof” (priority 2000, dated 2010).

Assays:
[1] = tested on: ginsenoside glycosidase II; assay: Hydrolysis of ginsenosides with ginsenoside glycosidase II (Fraction 54); format: biochemical, Aspergillus niger; conditions: substrate 0.5%, pH 5.0, 30° C., 18 hours
Procedure: 10 ml of the enzyme solution obtained in 1.1 was subjected to a DEAE-Cellulose DE-52 column (Pharamcia, 1.5×6.7 cm) to absorb the enzyme protein. The column was then eluted with a NaCl gradient (0.06, 0.12, 0.18, 0.24, 0.3, 0.4, 0.5 and 0.6M).
Fraction 54 which was eluted with 0.18 M NaCl from the DEAE-Cellulose column was lyophilized and appeared as a single dot when running on a SDS-polyacrylamide gel with a molecular weight of 90,000 Daltons. Therefore, it represented a purified enzyme and designated as ginsenoside glycosidase II.
To observe the differences between the ginsenoside glycosidases of the invention and known exo-cellulases, the ginsenoside glycosidases of the invention were compared with cellulose β-glucosidase (E.C. 3.2.1.21) in two reactions with 0.5% ginsenosides Rb1 or Rd as substrate.

[2] = tested on: ginsenoside glycosidases from A. oryzae; assay: Hydrolysis of ginsenosides with crude ginsenoside glycosidases from A. oryzae, TLC; format: biochemical, Aspergillus oryzae; conditions: pH 5.0, 30° C., 18 hours
Procedure: Aspergillus oryzae FFCCDL-39 g (available from Food Fermentation Culture Collection of Dalian Institute of Light Industry) was cultured with stirring in a medium containing 1% ginseng extracts and 3% wheat bran extracts at 30° C. for 64 hours. Cells were removed by centrifugation, after which (NH4)2SO4 powder was added to 2000 ml of the cell-free supernatant with stirring to 65% saturation. The solution was stored overnight at 4° C. and precipitated proteins were collected by centrifugation, resuspended in 80 ml of distilled water and dialyzed against 0.01M acetate buffer pH 5. Insolubles were removed by centrifugation, and the solution was adjusted to 200 ml with 0.01 M acetate buffer pH 5. The crude enzyme solution may be used to hydrolyze ginsenosides or to purify the enzymes.
Each 100 mg of ginsenosides Rb1, Rb2, Rc Re and Rd and each 10 mg of ginsenoside Rg3 and Rg2 were dissolved in separate tubes containing 10 ml of 0.01M acetate buffer pH 5. 10 ml of the crude enzyme solution obtained as above was added to each tube and allowed to react at 30° C. for 18 hours. Then 10 ml of n-butanol was added to stop the reactions. The products were measured by thin layer chromatography (TLC) (Silica gel 60-F254, Merck; chloroform:methanol:water 70:30:5). […]

[3] = tested on: ginsenoside glycosidase I from ginseng plants; assay: Hydrolysis of ginsenosides with fraction 52 (ginsenoside glycosidase I) from ginseng plant; format: biochemical; conditions: Fraction 52; substrate 0.5%; 50° C., pH 5.0, 18 hours
Procedure: 200 g of fresh ginseng root was cut into pieces and added to 600 ml of 0.02 M acetate buffer pH 5. Supernatant was obtained by filtration after the mixture stand at 40° C. for 2 hours. To the supernatant (NH4)2SO4 was added gradually until 70% saturation and the mixture stand overnight at 4° C. Then protein pellets were collected by centrifugation and redissolved in 15 ml of distilled water. The solution was dialyzed against 0.02 M Tris-HCl pH 7.4. Insolubles were removed by centrifugation and the volume of the supernatant was adjusted to 20 ml.
5 ml of the enzyme solution was subjected to a DEAE-Cellulose DE-25 column (Whatman, 1.4×6.7 cm). The column was eluted with a KCl gradient (0.06, 0.12, 0.18 and 0.24 M) in 0.02 M Tris-HCl pH 7.4. After elution, each fraction was tested for the activity of hydrolyzing ginsenosides. […] Fraction 52 can also hydrolyze the glucosidic bond at the twentieth carbon atom of Rb and Rc to give ginsenoside F2.

Row | Structure (SMILES) | Percentage of Rd in the reaction product [1] | Percentage of Rg3 in the reaction product [1] | Percentage of C—K in the reaction product [2] | Percentage of F2 in the reaction product [2] | Percentage of Rd in the reaction product [2] | Percentage of Rg3 in the reaction product [2] | Percentage of aglycone in the reaction product [2] | Percentage of F2 in the reaction product [3] | Percentage of Rd in the reaction product [3]
1 | CC(C)=CCC[C@](C)(O[C@@H]1O[C@H](CO)[C@@H](O)[C@H](O)[C@H]1O)[C@H]1CC[C@]2(C)[C@@H]1[C@H](O)C[C@@H]1[C@@]3(C)CC[C@H](O[C@@H]4O[C@H](CO)[C@@H](O)[C@H](O)[C@H]4O[C@@H]4O[C@H](CO)[C@@H](O)[C@H](O)[C@H]4O)C(C)(C)[C@@H]3CC[C@]12C [Rd, ginsenoside Rd] | 90% | 5% | 29% | 40% | 25% | 1% | 5% | 40% | 60%
2 | CC(C)=CCC[C@](C)(O[C@@H]1O[C@H](CO[C@@H]2O[C@H](CO)[C@@H](O)[C@H](O)[C@H]2O)[C@@H](O)[C@H](O)[C@H]1O)[C@H]1CC[C@]2(C)[C@@H]1[C@H](O)C[C@@H]1[C@@]3(C)CC[C@H](O[C@@H]4O[C@H](CO)[C@@H](O)[C@H](O)[C@H]4O[C@@H]4O[C@H](CO)[C@@H](O)[C@H](O)[C@H]4O)C(C)(C)[C@@H]3CC[C@]12C [Rb1, ginsenoside Rb1] | 90% | 5% | 45% | 38% | 20% | – | 2% | 70% | 30%
